“Also recorded” adds a separate entry of the source. Ends that are not written are not given here.
What was measured:
B16-F1/nude mice = details: Kogure et al, 2005; cited from earlier work
A549 = details: cited from earlier work
C1271 = details: Kogure et al, 2004; cited from earlier work
MDA-MB-453 cells = test: Apoptosis, annexin V-FITC method; format: cell-based, human; details: for apoptosis: MDA-MB-453 (erbB2-high), normoxia or hypoxia; for apoptosis after Akt1 knock-down: pre-treated with 60 pM Akt1 siRNA for 24 h, then drug 24 h
Protocol: (§1) Cell culture and treatment. […] Cells were cultured in DMEM with 10% FCS, 100 U/ml penicillin and 100 μg/ml streptomycin at 37° C. in a humidified atmosphere of 5% CO2. Mitochondrial complex I-deficient (Breen and Scheffler 1979; DeFrancesco et al 1976; Scheffler et al 2004) and complex II-deficient cells (Albayrak et al 2003; Oostveen et al 1995) were grown in DMEM with 10% FCS, […] glucose and non-essential amino acids.
(§2) At approximately 70% confluency, cells were treated with up to 50 μM α-TOS (Sigma), up to 100 μM 3-BP (Aldrich) or 30 ng/ml of human recombinant tumor necrosis factor-related apoptosis—inducing ligand (TRAIL) (Weber et al, 2002) under normoxic or hypoxic conditions. For hypoxia, cells overlaid with nitrogen-purged medium were placed in a hypoxic chamber pre-flushed extensively with nitrogen. The hypoxic chamber with cells was then placed in the incubator as required. α-TOS was dissolved in ethanol and used such that the final ethanol concentration in cell culture medium was <0.1% (v/v). Stock solutions of 3-BP were prepared in PBS prior to use.
Apoptosis assessment. Apoptosis was quantified using the annexin V-FITC method, which detects phosphatidyl serine externalized in the early phases of apoptosis (Boersma et al, 1996). Briefly, cells were plated at 10^5 per well in 24-well plates and, after an overnight recuperation, treated with α-TOS or 3-BP alone or in combination. Floating and attached cells were harvested, washed with PBS, resuspended in 0.2 ml binding buffer (10 mM Hepes, 140 mM NaCl, 5 mM CaCl2, pH 7.4), incubated for 30 min at 4° C. with 2 μl annexin V-FITC (PharMingen), supplemented with 200 μl of 50 μg/ml propidium iodide (PI; Sigma), and analyzed by flow cytometry (FACScalibur, Becton Dickinson) using channel 1 for annexin V-FITC binding and channel 2 for PI staining. Cell death was quantified as the percentage of cells with increased annexin V binding and PI staining.
RNA interference (RNAi). Short-interfering RNA (siRNA) oligonucleotides with 3′-dTdT overhangs specific for Akt1 were synthesized by Qiagen. The sequences are as follows: target sequence: […] (SEQ ID NO 2); siRNA duplex sequences: sense—r([…] )dTdT (SEQ ID NO 3), antisense—r([…] )dTdT (SEQ ID NO 4). The transfection of cultured MDA-MB-453 cells with siRNA was performed using OligofectAmine (Invitrogen) and OptiMEM according to the manufacturer's instructions. Briefly, cells were allowed to reach 50% confluency and supplemented with […] siRNA pre-incubated with OligofectAmine and overlayed with OptiMEM. Cells were washed 24 h later with PBS, overlayed with complete DMEM and treated as required after an additional 24 h.
Transfection of MDA-MB-453 cells with siRNAs was performed using OligofectAmine and OptiMEM. Briefly, cells were allowed to reach ˜50% confluency and supplemented with 60 pmol/l siRNA pre-incubated with OligofectAmine and overlayed with OptiMEM. Cells were washed 24 h later with PBS, overlaid with complete DMEM, cultured for an additional 24 h, 48 h and transgene expression confirmed using Western blotting before they were used for further experiments.

[1] = tested on: MDA-MB-453, MCF-7 and NeuTL breast cancer cells; test: ATP bioluminescence assay; format: cell-based, human; murine; details: 6 or 24 h; normoxia or hypoxia
Protocol: as §1, §2
ATP measurement. MDA-MB-453 and NeuTL cells were seeded at 2×10^5 per ml and MCF-7 cells at 1.2×10^5 per ml into 96-well tissue culture microtitre plates and allowed to recover overnight before use. Cells were incubated for 6 or 24 h with α-TOS or 3-BP under normoxia or hypoxia as described above. ATP levels were then measured using an ATP bioluminescence assay kit HSII (Roche Applied Science) according to the manufacturer's instructions. Briefly, control or treated cells were transferred into black microtitre plates after incubation for 5 min at room temperature with the cell lysis reagent. Luciferase reagent was added and the signal detected immediately using a Fluorostar Optima plate reader (BMG Labtech). Triplicate wells were read for each condition and data evaluated using a standard calibration curve prepared with known concentrations of ATP.

[2] = biological target: T1, complex II/SDH-dependent activity in NeuTL cells (Mus musculus, UniProt Q8K2B3+Q9CQA3+Q9CXV1+Q9CZB0); test: MTT reduction assay of complex II/SDH activity in whole cells; format: cell-based, murine; details: for inhibition of MTT reduction after MitoQ pre-incubation: cells pre-incubated 1 h with MitoQ; for enzymatic reduction of MTT: within a few hours of treatment
T1 construct: For specifically measuring complex II activity in whole cells; endogenous in cells; host or cells: NeuTL murine breast cancer cells
T1 sequence (Q8K2B3 43-664): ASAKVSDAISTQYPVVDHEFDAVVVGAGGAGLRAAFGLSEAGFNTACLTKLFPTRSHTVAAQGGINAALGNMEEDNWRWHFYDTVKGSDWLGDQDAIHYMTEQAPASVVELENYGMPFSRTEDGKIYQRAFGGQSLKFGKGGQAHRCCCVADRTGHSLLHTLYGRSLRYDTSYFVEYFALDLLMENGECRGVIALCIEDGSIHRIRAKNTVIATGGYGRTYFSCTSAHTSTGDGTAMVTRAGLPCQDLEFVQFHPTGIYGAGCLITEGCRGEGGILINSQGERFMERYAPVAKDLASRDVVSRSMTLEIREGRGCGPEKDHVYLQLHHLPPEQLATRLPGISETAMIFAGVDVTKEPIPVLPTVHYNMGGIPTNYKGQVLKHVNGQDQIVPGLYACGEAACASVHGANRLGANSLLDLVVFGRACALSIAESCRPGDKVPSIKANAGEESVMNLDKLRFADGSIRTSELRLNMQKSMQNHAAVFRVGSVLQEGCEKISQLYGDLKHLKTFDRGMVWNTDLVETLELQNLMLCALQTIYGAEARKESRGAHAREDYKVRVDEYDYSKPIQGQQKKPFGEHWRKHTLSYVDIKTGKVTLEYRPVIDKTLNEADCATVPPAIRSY
T1 sequence (Q9CQA3 31-282): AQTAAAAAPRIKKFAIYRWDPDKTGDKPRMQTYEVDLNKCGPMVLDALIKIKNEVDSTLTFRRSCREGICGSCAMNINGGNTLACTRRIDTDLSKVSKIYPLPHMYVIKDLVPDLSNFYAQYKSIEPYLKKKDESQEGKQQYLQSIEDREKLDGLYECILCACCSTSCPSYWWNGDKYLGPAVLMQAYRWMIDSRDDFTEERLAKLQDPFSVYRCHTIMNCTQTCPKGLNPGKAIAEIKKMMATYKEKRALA
T1 sequence (Q9CZB0 30-169): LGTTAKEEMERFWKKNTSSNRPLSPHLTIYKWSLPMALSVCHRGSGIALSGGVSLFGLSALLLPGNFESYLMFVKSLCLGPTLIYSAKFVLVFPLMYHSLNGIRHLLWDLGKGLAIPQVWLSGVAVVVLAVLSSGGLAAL
T1 sequence (Q9CXV1 57-159): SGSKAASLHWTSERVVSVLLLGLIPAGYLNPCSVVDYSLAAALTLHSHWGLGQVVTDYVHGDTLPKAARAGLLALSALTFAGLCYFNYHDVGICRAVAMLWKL
Protocol: MTT assay. MTT solutions were prepared immediately before use by dissolving 2.5 mg/ml 3-(4,5-dimethyl[…] (MTT) (Sigma) in PBS alone or phenol red-free RPMI medium containing 20 mM succinic acid, pH 7.4. Stock solutions of 3-nitropropionic acid (3NPA) in ethanol, thenoyltrifluoroacetone (TTFA) in DMSO, 3-BP in PBS, α-TOS in DMSO, and MitoQ (Alleva et al, 2003, James et al, 2005) in ethanol were prepared. The drugs were tested on NeuTL cells cultured in exponential growth phase in 96-well microtitre plates using 4-8 replicate wells per dilution assayed. To assess the ability of MitoQ to restore MTT reduction, cells were pre-incubated for 60 min with 2 or 5 μM MitoQ. Final concentrations of ethanol or DMSO in cultures were ≦0.1%. Treated and control cells were allowed to reduce MTT to blue formazan crystals for 2 or 4 h at 37° C. and 5% CO2. After incubation, culture supernatants were removed except for 30 μl, before the formazan crystals were solubilized by addition of 150 μl DMSO, and absorbance values were measured at 570 nm using a Fluorostar Optima plate reader.
To this end, the present inventors investigated whether α-TOS interferes with UbQ binding in complex II. For specifically measuring complex II activity in whole cells, a short-term (1-2 h) assay was used based on the reduction of the tetrazolium salt, MTT (Maehara et al, 1988). […] For this, oxidative respiration of murine NeuTL breast cancer cells was sustained on high levels of succinate (20 mM), thereby promoting the SDH activity of complex II (Maehara et al, 1988). The cells were then assayed within 1-2 h for their ability to enzymatically reduce MTT, which under conditions of high succinate becomes a specific indicator of complex II/SDH-dependent activity (Maehara et al, 1988, Berridge and Tan, 1993).

MCF-7 cells = test: Apoptosis, annexin V-FITC method; format: cell-based, human; details: MCF-7 (erbB2-low); 24 h; normoxia or hypoxia
Protocol: as §1, §2
Apoptosis assessment. Apoptosis was quantified using the annexin V-FITC method, which detects phosphatidyl serine externalized in the early phases of apoptosis (Boersma et al, 1996). Briefly, cells were plated at 10^5 per well in 24-well plates and, after an overnight recuperation, treated with α-TOS or 3-BP alone or in combination. Floating and attached cells were harvested, washed with PBS, resuspended in 0.2 ml binding buffer (10 mM Hepes, 140 mM NaCl, 5 mM CaCl2, pH 7.4), incubated for 30 min at 4° C. with 2 μl annexin V-FITC (PharMingen), supplemented with 200 μl of 50 μg/ml propidium iodide (PI; Sigma), and analyzed by flow cytometry (FACScalibur, Becton Dickinson) using channel 1 for annexin V-FITC binding and channel 2 for PI staining. Cell death was quantified as the percentage of cells with increased annexin V binding and PI staining. […]

[3] = tested on: erbB2 highly positive breast carcinomas; details: α-TOS 10 μmoles i.p. every 3 d; 3-BP 0.2 μmoles daily intratumorally
Protocol: (A) Nude mice were inoculated with MCF-7 cells and, after tumors became established, the animals were treated once every 3 d with 10 μmoles per mouse of α-TOS dissolved in DMSO or with DMSO alone, by intraperitoneal (i.p.) injection. Tumor size was measured using calipers and was correlated to the size of the carcinomas at the onset of the therapy. Four animals were used in each group. The results shown are mean values±S.E. The symbol ‘*’ denotes significant difference (p<0.05). (B) Female FVB/N erbB2 mice with palpable tumors (see General Materials and Methods) received either 10 μmoles α-TOS solubilized in corn oil/4% ethanol (n=11) or the corn oil/4% ethanol alone (control, n=9) by i.p. injection once every 3 d, or 0.2 μmoles 3-BP (n=8) in PBS at the tumor site every day. Tumor size was recorded using calipers. Two independent experiments were conducted. Results are represented as mean values±S.E. The symbol ‘*’ denotes significant difference (p<0.05) in the analysis of variance between the 3-BP and α-TOS curves.
Mouse tumor experiments. Nude mice were inoculated subcutaneously with MCF-7 cells (2×10^6 cells/mouse). After tumors developed (diameter of 3-7 mm), mice were injected intraperitoneally with 10 μmoles α-TOS in DMSO every 3 days. Control mice were injected with an equal volume (100 μl) of DMSO only. Tumor size was estimated by measuring with digital calipers. A colony of transgenic FVB/N2O2 rat c-neu mice carrying the rat HER-2/neu protooncogene driven by the MMTV promoter on the H-2^q FVB/N background (Guy et al, 1992) was established at the Griffith University Animal Facility and maintained under strict inbreeding conditions. The presence of the transgene was routinely confirmed by PCR. Approximately 70% of the female mice developed spontaneous mammary carcinomas with a mean latency time of 10 months. Female transgenic FVB/N2O2 rat c-neu mice bearing progressively growing tumors with a mean diameter of 10±5 mm were randomly assigned to control or treatment groups. Tumor size was measured using digital calipers. […]

Jurkat = details: cited from earlier work
[4] = tested on: breast carcinomas with high erbB2 expression; test: Breast carcinomas in FVB/N2O2 c-neu mice, ultrasound imaging; format: in vivo
Protocol: FIG. 11. Peptide conjugate LTVSPWY-α-TOS (SEQ ID NO 1) suppresses breast carcinomas. FVB/N2O2 c-neu female mice of >7 months of age with breast carcinomas, as detected by ultrasound imaging (USI), were treated by intraperitoneal injection of the vehicle or 5 μmol per mouse per dose of LTVSPWY-α-TOS (SEQ ID NO 1) solubilised in corn oil/ethanol (100:5, v/v) at times shown. The tumours were visualised and quantified using USI and are expressed relative to their volume at the onset of the treatment (A). […] The volume was […] at the onset of the experiment for both tumors. Data shown are mean values±SD (n=4-6) and the USI images are representative of tumours from each group.
This example describes the targeting of an α-TOS pro-drug to cancer cells over-expressing the receptor tyrosine kinase erbB2. An adduct of α-TOS was linked to the heptapeptide LTVSPWY (SEQ ID NO 1), which peptide is known for targeting cancer cells over-expressing erbB2. […] In fact, there was an unexpected 90% relative reduction in size of treated tumors compared to the untreated control.

all cells = details: Zhang et al, 2001b; cited from earlier work
NB4, HT93 = details: cited from earlier work
[5] = tested on: retinoic acid receptors (RARs); details: reporter constructs; cited from earlier work
[6] = tested on: Jurkat, HVT11, MCF7, MCF7-C3, U937, Meso-2; details: cited from earlier work

Cc1c(C)c2c(c(C)c1OC(=O)C(=O)O)CCC(C)(CCCC(C)CCCC(C)CCCC(C)C)O2 (centres unmarked) [Compound 10]
cytotoxicity in mice inoculated with B16-F1 melanoma cells (B16-F1/nude mice): non-selective cytotoxicity

CCC(=O)Oc1c(C)c(C)c2c(c1C)CCC(C)(CCCC(C)CCCC(C)CCCC(C)C)O2 (centres unmarked) [Compound 19]
pro-apoptotic activity (A549): inactive

CCOC(=O)CCC(=O)Oc1c(C)c(C)c2c(c1C)CCC(C)(CCCC(C)CCCC(C)CCCC(C)C)O2 (centres unmarked) [Compound 25]
pro-apoptotic activity (C1271): without pro-apoptotic activity

O=C(O)C(=O)CBr [Compound 3-BP, 3-bromopyruvate, reference compound]
apoptosis (MDA-MB-453 cells): strikingly resistant to killing by 3-BP, even with concentrations as high as 100 μM | apoptosis after Akt1 knock-down (MDA-MB-453 cells): particularly marked increase in cytotoxic responsiveness; also recorded: sensitizes | cellular ATP levels [1]: more potent inhibitors than α-TOS | complex II-mediated MTT reduction ([2]; absence of added succinate, 4 h): potent inhibitors of the complex II-mediated MTT reduction | inhibition of MTT reduction after MitoQ pre-incubation [2]: not significantly different | enzymatic reduction of MTT [2]: significant decreases occurring in the levels of MTT reduction | apoptosis (MCF-7 cells): more sensitive to killing by 3-BP under hypoxia than normoxia | tumor growth [3]: either growth arrest or partial regression

COc1c(C)c(C)c2c(c1C)CCC(C)(CCCC(C)CCCC(C)CCCC(C)C)O2 (centres unmarked) [Compound 18]
pro-apoptotic activity (Jurkat): inactive

LTVSPWY-α-TOS: adduct of α-TOS linked to the heptapeptide LTVSPWY (SEQ ID NO 1) (also: α-tocopheryl succinate adduct, attachment site not given here)
tumour volume ([4]; day 15, 5 μmol per dose per mouse i.p., representative tumour, volume −40 mm^3 at onset): 34.8 mm^3 | relative reduction in size of treated tumors compared to the untreated control ([4]; mouse, in vivo): 90%

Cc1c(C)c2c(c(C)c1OC(=O)CCCCCC(=O)O)CCC(C)(CCCC(C)CCCC(C)CCCC(C)C)O2 (centres unmarked) [Compound 24]
pro-apoptotic activity (C1271): no activity at all

O=C(CC(=O)C(F)(F)F)c1cccs1 [TTFA, 4,4,4-trifluoro-1-(2-thienyl)-1,3-butanedione]
inhibition of MTT reduction after MitoQ pre-incubation [2]: significantly overcome by pre-incubation of the cells with MitoQ | enzymatic reduction of MTT [2]: significantly inhibited the enzymatic reduction of MTT | toxicity to cells (all cells): toxic to all cells

Cc1c(C)c2c(c(C)c1OC(=O)CC(=O)O)CCC(C)(CCCC(C)CCCC(C)CCCC(C)C)O2 (centres unmarked) [Compound 11]
cytotoxicity in mice inoculated with B16-F1 melanoma cells (B16-F1/nude mice): non-selective cytotoxicity

CC(C=CC1=C(C)CCCC1(C)C)=CC=CC(C)=CC(=O)Oc1c(C)c(C)c2c(c1C)CCC(C)(CCCC(C)CCCC(C)CCCC(C)C)O2 (centres unmarked) [Compound 28]
IC50 (NB4, HT93): 100 to 1000 nM | agonism at retinoic acid receptors [5]: acted as agonists for retinoic acid receptors (RARs)

Cc1cc(OC(=O)CCC(=O)O)c(C)c2c1OC(C)(CCCC(C)CCCC(C)CCCC(C)C)CC2 (centres unmarked) [Compound 32]
IC50, relative to α-TOS [6]: 50% of α-TOS

CC(C=CC1=C(C)CCCC1(C)C)=CC=CC(C)=CC(=O)Oc1c(C)c(C)c2c(c1C)CCC(C)(CCCC(C)CCCC(C)CCCC(C)C)O2 (centres unmarked) [Compound 29]
agonism at retinoic acid receptors [5]: acted as agonists for retinoic acid receptors (RARs)

B1: TRAIL: human recombinant tumor necrosis factor-related apoptosis—inducing ligand (protein, UniProt P50591 1-281, looked up)
Tumor necrosis factor ligand …: MAMMEVQGGPSLGQTCVLIVIFTVLLQSLCVAVTYVYFTNELKQMQDKYSKSGIACFLKEDDSYWDPNDEESMNSPCWQVKWQLRQLVRKMILRTSEETISTVQEKQQNISPLVRERGPQRVAAHITGTRGRSNTLSSPNSKNEKALGRKINSWESSRSGHSFLSNLHLRNGELVIHEKGFYYIYSQTYFRFQEEIKENTKNDKQMVQYIYKYTSYPDPILLMKSARNSCWSKDAEYGLYSIYQGGIFELKENDRIFVSVTNEHLIDMDHEASFFGAFLVG
apoptosis (MDA-MB-453 cells): much more resistant to apoptosis | apoptosis after Akt1 knock-down (MDA-MB-453 cells): sensitizes | cellular ATP levels [1]: more potent inhibitors than α-TOS
